Experimental data published in patent publication US9695155B2, “Herbicidal substituted pyrimidinyloxy benzene compounds” (E. I. DU PONT DE NEMOURS AND COMPANY, priority 2013, dated 2017).

Tests used:
[1] = system: pigweed; experiment: Test A preemergence; format: in vivo, Amaranthus retroflexus; conditions: for Plant response rating, Pigweed: 0 to 100 scale where 0 is no effect and 100 is complete control
In short: (§1)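 Compounds in non-phytotoxic solvent with surfactant applied as soil spray preemergence, or postemergence to plants 2-10 cm at one- to two-leaf stage, in loam/sand. After approximately 10 days in greenhouse, injury rated visually versus untreated controls, 0 (no effect) to 100 (complete control).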

[2] = system: barnyardgrass; experiment: Test A preemergence; format: in vivo, Echinochloa crus-galli; conditions: for Plant response rating, Barnyardgrass: 0 to 100 scale where 0 is no effect and 100 is complete control
In short: as §1

[3] = system: velvetleaf; experiment: Test A postemergence; format: in vivo, Abutilon theophrasti
In short: as §1

[4] = system: wheat; experiment: Test A postemergence; format: in vivo, Triticum aestivum
In short: as §1

[5] = system: Heteranthera limosa; experiment: Test B flooded paddy test; format: in vivo; conditions: Flood, 250 g ai/ha; 0 to 100 scale where 0 is no effect and 100 is complete control
In short: (§2)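 2-leaf stage plants; pots flooded to 3 cm, compound added to paddy water, depth maintained. Greenhouse 13–15 d. Visual rating vs untreated controls, 0 (no effect) to 100 (complete control); dash = no result.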

[6] = system: sedge, umbrella; experiment: Test B flooded paddy test; format: in vivo, Cyperus difformis; conditions: Flood, 250 g ai/ha; 0 to 100 scale where 0 is no effect and 100 is complete control
In short: as §2

[7] = system: wheat; experiment: Test A preemergence; format: in vivo, Triticum aestivum
In short: as §1

[8] = system: rice; experiment: Test C flooded paddy test; format: in vivo, Oryza sativa; conditions: Flood, scale 0 to 100 (0 no effect, 100 complete control), 13 to 15 days
From the text: (§3) At time of treatment, test pots were flooded to 3 cm above the soil surface, treated by application of test compounds directly to the paddy water, and then maintained at that water depth for the duration of the test. Treated plants and controls were maintained in a greenhouse for 13 to 15 days, after which time all species were compared to controls and visually evaluated. […] A dash (-) response means no test result.

[9] = system: morningglory; experiment: Test A postemergence; format: in vivo, Ipomoea spp.
In short: as §1

[10] = system: large (Lg) crabgrass; experiment: Test A preemergence; format: in vivo, Digitaria sanguinalis
In short: as §1

[11] = system: giant foxtail; experiment: Test A preemergence; format: in vivo, Setaria faberii; conditions: for Plant response rating, Foxtail, Giant: 0 to 100 scale where 0 is no effect and 100 is complete control
In short: as §1

[12] = system: barnyardgrass; experiment: Test C flooded paddy test; format: in vivo, Echinochloa crus-galli; conditions: Flood, scale 0 to 100 (0 no effect, 100 complete control), 13 to 15 days
From the text: as §3

[13] = system: corn; experiment: Test A postemergence; format: in vivo, Zea mays
In short: as §1

[14] = system: rice; experiment: Test B flooded paddy test; format: in vivo, Oryza sativa; conditions: Flood, 250 g ai/ha; 0 to 100 scale where 0 is no effect and 100 is complete control
In short: as §2

[15] = system: large (Lg) crabgrass; experiment: Test A postemergence; format: in vivo, Digitaria sanguinalis
In short: as §1

[16] = system: giant foxtail; experiment: Test A postemergence; format: in vivo, Setaria faberii
In short: as §1

[17] = system: barnyardgrass; experiment: Test B flooded paddy test; format: in vivo, Echinochloa crus-galli; conditions: Flood, 250 g ai/ha; 0 to 100 scale where 0 is no effect and 100 is complete control
In short: as §2

[18] = system: ducksalad; experiment: Test C flooded paddy test; format: in vivo, Heteranthera limosa; conditions: Flood, scale 0 to 100 (0 no effect, 100 complete control), 13 to 15 days
From the text: as §3

[19] = system: velvetleaf; experiment: Test A preemergence; format: in vivo, Abutilon theophrasti
In short: as §1

[20] = system: pigweed; experiment: Test A postemergence; format: in vivo, Amaranthus retroflexus
In short: as §1

[21] = system: barnyardgrass; experiment: Test A postemergence; format: in vivo, Echinochloa crus-galli
In short: as §1

[22] = system: corn; experiment: Test A preemergence; format: in vivo, Zea mays
In short: as §1

[23] = system: sedge, umbrella; experiment: Test C flooded paddy test; format: in vivo, Cyperus difformis; conditions: Flood, scale 0 to 100 (0 no effect, 100 complete control), 13 to 15 days
From the text: as §3

[24] = system: kochia; experiment: Test A preemergence; format: in vivo, Kochia scoparia
In short: as §1

[25] = system: kochia; experiment: Test A postemergence; format: in vivo, Kochia scoparia; conditions: 0 to 100 scale, 0 no effect, 100 complete control
In short: as §1

[26] = system: ragweed; experiment: Test A preemergence; format: in vivo, Ambrosia elatior
In short: as §1

[27] = system: Italian ryegrass; experiment: Test A postemergence; format: in vivo, Lolium multiflorum; conditions: 0 to 100 scale, 0 no effect, 100 complete control
In short: as §1

[28] = system: Italian ryegrass; experiment: Test A preemergence; format: in vivo, Lolium multiflorum
In short: as §1

[29] = system: blackgrass; experiment: Test A postemergence; format: in vivo, Alopecurus myosuroides; conditions: 0 to 100 scale, 0 no effect, 100 complete control
In short: as §1

[30] = system: ragweed; experiment: Test A postemergence; format: in vivo, Ambrosia elatior; conditions: 0 to 100 scale, 0 no effect, 100 complete control
In short: as §1

[31] = system: galium; experiment: Test A postemergence; format: in vivo, Galium aparine; conditions: 0 to 100 scale, 0 no effect, 100 complete control
In short: as §1

[32] = 500 g ai/ha, 0 to 100 scale, 0 no effect, 100 complete control, approx. 10 days
[33] = 125 g ai/ha, 0 to 100 scale where 0 is no effect and 100 is complete control
[34] = 500 g ai/ha, 0 to 100 scale, 0 no effect, 100 complete control
[35] = 31 g ai/ha, visual, approximately 10 days
[36] = 31 g ai/ha, 0 to 100 scale where 0 is no effect and 100 is complete control, visual, approximately 10 days
[37] = 31 g ai/ha, 0 to 100 scale, 0 no effect, 100 complete control
[38] = 125 g ai/ha, 0 to 100 scale, 0 no effect, 100 complete control

Clc1cnc(Oc2ccccc2-n2cnc(Br)c2)nc1 [Compound 34]
Plant response rating, Pigweed ([1]; 125 g ai/ha): 80 | Pigweed plant response rating [1, 32]: 100 | Plant response rating, Barnyardgrass ([2]; 125 g ai/ha): 0 | Barnyardgrass plant response rating [2, 32]: 50 | Plant response rating, Velvetleaf [3, 33]: 80 | Plant response rating, Velvetleaf [3, 34]: 100 | Plant response rating, Wheat [4, 33]: 0 | Plant response rating, Wheat [4, 34]: 20 | Plant response rating, Ducksalad [5]: 90 | Plant response rating, Sedge, Umbrella [6]: 90 | Plant response rating, Wheat [7, 33]: 0 | Wheat plant response rating [7, 32]: 0 | Plant response rating, Rice ([8]; 31 g ai/ha): 0 | Plant response rating, Rice ([8]; 62 g ai/ha): 0 | Plant response rating, Rice ([8]; 125 g ai/ha): 0 | Plant response rating, Rice ([8]; 250 g ai/ha): 0 | Plant response rating, Morningglory [9, 33]: 60 | Plant response rating, Morningglory [9, 34]: 80 | Plant response rating, Crabgrass, Large [10, 33]: 70 | Crabgrass, Large plant response rating [10, 32]: 90 | Plant response rating, Foxtail, Giant ([11]; 125 g ai/ha): 30 | Foxtail, Giant plant response rating [11, 32]: 100 | Plant response rating, Barnyardgrass ([12]; 31 g ai/ha): 0 | Plant response rating, Barnyardgrass ([12]; 62 g ai/ha): 0 | Plant response rating, Barnyardgrass ([12]; 125 g ai/ha): 0 | Plant response rating, Barnyardgrass ([12]; 250 g ai/ha): 10 | Plant response rating, Corn [13, 33]: 10 | Plant response rating, Corn [13, 34]: 20 | Plant response rating, Rice [14]: 30 | Plant response rating, Crabgrass, Large [15, 33]: 50 | Plant response rating, Crabgrass, Large [15, 34]: 60 | Plant response rating, Foxtail, Giant [16, 33]: 30 | Plant response rating, Foxtail, Giant [16, 34]: 70 | Plant response rating, Barnyardgrass [17]: 20 | Plant response rating, Ducksalad ([18]; 31 g ai/ha): 0 | Plant response rating, Ducksalad ([18]; 62 g ai/ha): 0 | Plant response rating, Ducksalad ([18]; 125 g ai/ha): 20 | Plant response rating, Ducksalad ([18]; 250 g ai/ha): 75 | Plant response rating, Velvetleaf [19, 33]: 60 | Velvetleaf plant response rating [19, 32]: 80 | Plant response rating, Pigweed [20, 33]: 90 | Plant response rating, Pigweed [20, 34]: 100 | Plant response rating, Barnyardgrass [21, 33]: 20 | Plant response rating, Barnyardgrass [21, 34]: 50 | Plant response rating, Corn [22, 33]: 0 | Corn plant response rating [22, 32]: 0 | Plant response rating, Sedge, Umbrella ([23]; 31 g ai/ha): 0 | Plant response rating, Sedge, Umbrella ([23]; 62 g ai/ha): 0 | Plant response rating, Sedge, Umbrella ([23]; 125 g ai/ha): 0 | Plant response rating, Sedge, Umbrella ([23]; 250 g ai/ha): 70

FC(F)(F)c1cnn(-c2c(Oc3ncc(Cl)cn3)cccc2-c2ncon2)c1 [Compound 279]
Plant response rating, Pigweed [1, 35]: 90 | Pigweed plant response rating (0 to 100 scale) ([1]; 125 g ai/ha): 100 | Plant response rating, Kochia [24, 36]: 40 | Kochia plant response rating (0 to 100 scale) ([24]; 125 g ai/ha): 90 | Plant response rating, Barnyardgrass [2, 35]: 0 | Barnyardgrass plant response rating (0 to 100 scale, 0 is no effect, 100 is complete control) ([2]; 125 g ai/ha): 10 | Plant response rating, Kochia ([25]; 31 g ai/ha): 40 | Plant response rating, Kochia ([25]; 125 g ai/ha): 90 | Plant response rating, Wheat [4, 37]: 0 | Plant response rating, Wheat [4, 38]: 30 | Plant response rating, Ducksalad [5]: 90 | Plant response rating, Ragweed [26, 36]: 0 | Ragweed plant response rating (0 to 100 scale) ([26]; 125 g ai/ha): 10 | Plant response rating, Sedge, Umbrella [6]: 90 | Plant response rating, Ryegrass, Italian ([27]; 31 g ai/ha): 0 | Plant response rating, Ryegrass, Italian ([27]; 125 g ai/ha): 50 | Plant response rating, Ryegrass, Italian [28, 36]: 0 | Ryegrass, Italian plant response rating (0 to 100 scale) ([28]; 125 g ai/ha): 0 | Plant response rating, Foxtail, Giant [11, 35]: 40 | Foxtail, Giant plant response rating (0 to 100 scale) ([11]; 125 g ai/ha): 50 | Plant response rating, Corn [13, 37]: 10 | Plant response rating, Corn [13, 38]: 10 | Plant response rating, Rice [14]: 50 | Plant response rating, Blackgrass ([29]; 31 g ai/ha): 10 | Plant response rating, Blackgrass ([29]; 125 g ai/ha): 40 | Plant response rating, Foxtail, Giant [16, 37]: 10 | Plant response rating, Foxtail, Giant [16, 38]: 50 | Plant response rating, Barnyardgrass [17]: 75 | Plant response rating, Ragweed ([30]; 31 g ai/ha): 20 | Plant response rating, Ragweed ([30]; 125 g ai/ha): 40 | Plant response rating, Pigweed [20, 37]: 50 | Plant response rating, Pigweed [20, 38]: 80 | Plant response rating, Barnyardgrass [21, 37]: 0 | Plant response rating, Barnyardgrass [21, 38]: 30 | Plant response rating, Galium ([31]; 31 g ai/ha): 20 | Plant response rating, Galium ([31]; 125 g ai/ha): 80
